# Experimental data: ChEMBL document CHEMBL4017441, “Mitigating the inhibition of human bile salt export pump by drugs: opportunities provided by physicochemical property modulation, in silico modeling, and structural modification” (Drug Metab Dispos, 2012)
# *1 amine or outer side, *2 acyl side, *3 side chain or, on linkers, in order; H or OH if unused. Where a SMILES comes first, the peptide text is derived from it. Bridges are numbered along the chain shown (N, C = ends). [ ]: non-standard residue; d: D form. The star is where a group is joined. ξ: configuration not given here. X2 = N=C1NC(O)C[C@H]([C@H](N[*:1])C(=O)[*:2])N1; ΔAla(Z-3-ureido) = NC(=O)N/C=C(\N)C(=O)O; X1 = N=C1NCCC(C(N[*:1])C(=O)[*:2])N1; ξβ3hOrn = NCCCC(N)CC(=O)*; Dap = NC[CH](N)C(=O)O
# Molecular target: Bile salt export pump (Homo sapiens, UniProt O95342)
# Assay type: ADME
row,Compound,IC50 [µM]
1,O=S(=O)(CCOCCc1ccccc1)NCCNCCc1ccc(O)c2nc(O)sc12,35.7
2,C[C@@H](COc1ccc(N2CCN(c3ccncc3)CC2)cc1)CC(=O)O,> 1000
3,CN(C)C(=O)c1ccc(S(=O)(=O)c2ccc(NC(=O)[C@@](C)(O)C(F)(F)F)c(Cl)c2)cc1,< 12.8
4,CC1=C(CC(=O)O)c2cc(F)ccc2/C1=C\c1ccc([S+](C)[O-])cc1 (stereo not drawn),63.7
5,COC(=O)[C@H](Cc1ccccc1)NC(=O)[C@@H](N)CC(=O)O,> 1000
6,CCS[C@]1(SC)CC[C@H]2[C@@H]3CCC4=CC(=O)C=C[C@]4(C)[C@@]3(F)[C@@H](O)C[C@@]21C,< 10
7,CCCc1nn(C)c2c(=O)[nH]c(-c3cc(S(=O)(=O)N4CCN(C)CC4)ccc3OCC)nc12,16.4
8,Cc1ccc2c(c1)c(-c1ccnc3c(C)cccc13)c(C)n2CC(=O)O,< 10
9,CCCCCC(O)C1C(=O)OC(C)C(O)/C=C/C=C/C=C/C=C/C=C(/C)C(O)CC(O)CC(O)CC(O)CC(O)CC(O)CC1O (stereo not drawn),164
10,CC(=O)NS(=O)(=O)c1ccc(NC(=O)c2ccccc2C(=O)O)cc1,> 1000
11,Cc1ccc2c(c1)c(-c1ccnc3c(C(F)(F)F)cccc13)c(C)n2CC(=O)O,< 10
12,CNC[C@H](O)Cc1ccc(Cl)c(C(=O)NCC23CC4CC(CC(C4)C2)C3)c1,133
13,Cc1cc(-c2ccc(N3C[C@H](Cn4ccnn4)OC3=O)cc2F)on1,> 1000
14,Nc1ccccc1C(=O)NCC(=O)O,> 1000
15,COc1ccccc1N1CCN(CCCNc2cc(=O)n(C)c(=O)n2C)CC1,< 11.3
16,Nc1ccc([As](=O)(O)O)cc1,> 1000
17,O=c1[nH]c2c(O)ccc(CCNCCCS(=O)(=O)CCCOCCc3ccccc3)c2s1,32.4
18,CCCSc1nc(N)c2ncn([C@@H]3O[C@H](COP(=O)(O)OP(=O)(O)C(Cl)(Cl)P(=O)(O)O)[C@@H](O)[C@H]3O)c2n1,> 1000
19,NC(=O)CN1CCCC1=O,> 1000
20,Cc1n[nH]c(C)c1Cc1sc2c(c1C(=O)N1C[C@H](O)CO1)c(=O)n(C)c(=O)n2CC(C)C,248
21,Cc1ccc2c(c1)c(-c1ccnc3c(Cl)cccc13)c(C)n2CC(=O)O,< 10
22,COc1nc(C)cnc1NS(=O)(=O)c1cccnc1-c1ccc(CC(C)C)cc1,19.5
23,CCCc1ncc(-c2ccnc(Nc3ccc(S(=O)(=O)NCCOC)cc3)n2)n1C(C)C,< 10
24,NS(=O)(=O)c1ccc(-c2ccc(OC[C@H](O)CCc3cccnc3)cc2)s1,> 1000
25,CC1(C)COC(=O)C1O (stereo not drawn),> 1000

row,Compound,IC50 [µM]
1,Cc1ccc(OC(C)(C)[C@H]2OC[C@@H](C/C=C\CCC(=O)O)[C@@H](c3cccnc3)O2)c(C#N)c1,< 10
2,CCC(=O)OC(OP(=O)(CCCCc1ccccc1)CC(=O)N1CC(C2CCCCC2)CC1C(=O)O)C(C)C (stereo not drawn),< 13.3
3,CCOCCNS(=O)(=O)c1ccc(Nc2nccc(-c3cnc(C)n3C(C)C)n2)cc1,< 10
4,Cc1ccc(NC(=O)c2cccc3c2oc2ccccc23)cc1NC(=O)c1cccc(CN2CCN(C)CC2)c1,< 10
5,Cc1ccc(CCCN[C@H](C)CO)cc1C(=O)NCC12CC3CC(CC(C3)C1)C2,65.6
6,Nc1ccc(CN2C(=O)C(Nc3ccc(N4CCOCC4)cc3)=C(c3ccccc3)C2=O)cn1,< 10
7,CCCc1ncc(-c2ccnc(Nc3ccc(S(=O)(=O)NCCOC)cc3)n2)n1CC,< 10
8,O=C(O)c1cc2sccc2n1Cc1ccc(Cl)c(Cl)c1,13.7
9,Cc1n[nH]c(C)c1Cc1sc2c(c1C(=O)N1C[C@H](O)CO1)c(=O)n(C)c(=O)n2C(C)C,703
10,CN(C)c1ncnc2c1ncn2C1OC(CO)C(N)C1O (stereo not drawn),> 1000
11,COc1ccc(-n2[nH]c(=O)c3[nH]c4cc(Cl)ccc4c(=O)c3c2=O)c(C)c1,490
12,Cc1cc2cc(C(=O)NC3Cc4ccccc4N(C[C@@H](O)CO)C3=O)[nH]c2s1 (stereo partly drawn),< 11
13,CCc1cccc(C)c1CNC1=C2NC(C)=C(C)N2CC(C(N)=O)=C1,< 10
14,CCN(CC)C(=O)c1ccc(C(=C2CCNCC2)c2ccccc2)cc1,106
15,CC1=C(C/C=C(\C)CCCC(C)CCCC(C)CCCC(C)C)C(=O)c2ccccc2C1=O (stereo not drawn),> 1000
16,Cc1ccc(C(=O)N2CC3CNCC(C2)O3)cc1NC(=O)CC12CC3CC(CC(C3)C1)C2,59.5
17,CCCSc1nc(N)c2ncn([C@@H]3O[C@H](CO)[C@@H](O)[C@H]3O)c2n1,> 1000
18,CC(C)(C)C(=O)Oc1ccc(S(=O)(=O)Nc2ccccc2C(=O)NCC(=O)O)cc1,142
19,N=C1NCCC(C2NC(=O)/C(=C/NC(N)=O)NC(=O)C(CNC(=O)CC(N)CCCN)NC(=O)C(CO)NC(=O)C(N)CNC2=O)N1 (stereo not drawn) (H-[Dap]S[Dap](ξβ3hOrn)[ΔAla(Z-3-ureido)][X1]; lactam 1-C; configuration not given here),> 1000
20,CN1CCc2cccc3c2[C@H]1Cc1ccc(O)c(O)c1-3 (stereo in doubt; form 1) [APOMORPHINE],211
21,CN1CCc2cccc3c2[C@H]1Cc1ccc(O)c(O)c1-3 (stereo in doubt; form 2) [APOMORPHINE],391
22,N=C1NC(O)C[C@H]([C@@H]2NC(=O)/C(=C/NC(N)=O)NC(=O)[C@H](CO)NC(=O)[C@H](CO)NC(=O)[C@@H](NC(=O)CC(N)CCCN)CNC2=O)N1 (stereo partly drawn) (ξβ3hOrn-[Dap]SS[ΔAla(Z-3-ureido)][X2]; lactam 1-C),> 1000
23,N[C@H]1C[C@@H]1c1ccccc1 [(+)-TRANYLCYPROMINE],103
24,COC(=O)C1=C(C)NC(C)=C(C(=O)OC(C)C)[C@@H]1c1cccc2nonc12 [(R)-ISRADIPINE],< 10
25,C[C@@](O)(CS(=O)(=O)c1ccc(F)cc1)C(=O)Nc1ccc(C#N)c(C(F)(F)F)c1 [(S)-BICALUTAMIDE],< 10

row,Compound,IC50 [µM]
1,CCC(=N\O)/C(C)=C/c1ccc(F)cc1 [A-079],26.8
2,CCN(CC)CCNC(=O)c1ccc(NC(C)=O)cc1 [ACECAINIDE],> 1000
3,CC(=O)c1ccc2c(c1)N(CCCN(C)C)c1ccccc1S2 [ACEPROMAZINE],112
4,CC(=O)Nc1ccccc1 [ACETANILIDE],> 1000
5,CC(=O)Nc1cc([As](=O)(O)O)ccc1O [ACETARSONE],> 1000
6,CC(=O)OCC[N+](C)(C)C [ACETYLCHOLINE],> 1000
7,CC(=O)Nc1ccc(CC(=O)O)cc1 [ACTARIT],> 1000
8,Nc1ncnc2nc[nH]c12 [ADENINE],> 1000
9,CCN(CC)CCOC(=O)C(c1ccccc1)c1ccccc1 [ADIPHENINE],158
10,NC(=O)c1ccc([N+](=O)[O-])cc1Cl [AKLOMIDE],> 1000
11,CCC[S+]([O-])CCCN(CC)CC(O)COc1ccc(C#N)cc1 (stereo not drawn) [ALMOKALANT],55.7
12,CN(C)c1nc(N(C)C)nc(N(C)C)n1 [ALTRETAMINE],> 1000
13,N=C(N)NC(=O)c1nc(Cl)c(N)nc1N [AMILORIDE],> 1000
14,CCC1(c2ccc(N)cc2)CCC(=O)NC1=O (stereo not drawn) [AMINOGLUTETHIMIDE],> 1000
15,Nc1ccc(C(=O)NCC(=O)O)cc1 [AMINOHIPPURIC ACID],> 1000
16,CCOC(=O)C1=C(COCCN)NC(C)=C(C(=O)OC)C1c1ccccc1Cl (stereo not drawn) [AMLODIPINE],16
17,CCN(CC)Cc1cc(Nc2ccnc3cc(Cl)ccc23)ccc1O [AMODIAQUINE],77.8
18,Clc1ccc2c(c1)C(N1CCNCC1)=Nc1ccccc1O2 [AMOXAPINE],230
19,CCCc1ncc(C[n+]2ccccc2C)c(N)n1 [AMPROLIUM ION],> 1000
20,c1ccc(CN(CC2=NCCN2)c2ccccc2)cc1 [ANTAZOLINE],> 1000
21,Cc1cc(=O)n(-c2ccccc2)n1C [ANTIPYRINE],> 1000
22,COC(=O)C1=CCCN(C)C1 [ARECOLINE],> 1000
23,C[C@H]1C[C@H]2[C@@H]3CCC4=CC(=O)C=C[C@]4(C)[C@@]3(Cl)[C@@H](O)C[C@]2(C)[C@@]1(O)C(=O)CO [BECLOMETHASONE],23.7
24,NS(=O)(=O)c1cc2c(cc1C(F)(F)F)NC(Cc1ccccc1)NS2(=O)=O (stereo not drawn) [BENDROFLUMETHIAZIDE],69.6
25,CC(C(=O)O)c1ccc2oc(-c3ccc(Cl)cc3)nc2c1 (stereo not drawn) [BENOXAPROFEN],104

row,Compound,IC50 [µM]
1,CCCCOc1cc(C(=O)OCCN(CC)CC)ccc1N [BENOXINATE],309
2,NC(CO)C(=O)NNCc1ccc(O)c(O)c1O (stereo not drawn) [BENSERAZIDE],117
3,O=C(O)c1ccc(NC(=O)[C@H](Cc2ccc(O)cc2)NC(=O)c2ccccc2)cc1 [BENTIROMIDE],235
4,CCOC(=O)c1ccc(N)cc1 [BENZOCAINE],> 1000
5,CCCCNc1ccc(C(=O)OCCOCCOCCOCCOCCOCCOCCOCCOCCOC)cc1 [BENZONATATE],< 10
6,O=C(Nc1ccc(C(=O)O)c(O)c1)c1ccccc1 [BENZOYLPAS],> 1000
7,NS(=O)(=O)c1cc2c(cc1Cl)N=C(CSCc1ccccc1)NS2(=O)=O [BENZTHIAZIDE],57.4
8,CC(C)COCC(CN(Cc1ccccc1)c1ccccc1)N1CCCC1 (stereo not drawn) [BEPRIDIL],< 16.5
9,CC1=C(/C=C/C(C)=C/C=C/C(C)=C/C=C/C=C(C)/C=C/C=C(C)/C=C/C2=C(C)CCCC2(C)C)C(C)(C)CCC1 [BETA CAROTENE],< 10
10,C[N+](C)(C)CC(=O)O [BETAINE],> 1000
11,CC(C)NCC(O)COc1ccc(CCOCC2CC2)cc1 (stereo not drawn) [BETAXOLOL],> 1000
12,CC(C[N+](C)(C)C)OC(N)=O (stereo not drawn) [BETHANECHOL],> 1000
13,CC(C)(Oc1ccc(CCNC(=O)c2ccc(Cl)cc2)cc1)C(=O)O [BEZAFIBRATE],181
14,CC(=O)Oc1ccc(C(c2ccc(OC(C)=O)cc2)c2ccccn2)cc1 [BISACODYL],56.4
15,COc1ccccc1Oc1c(NS(=O)(=O)c2ccc(C(C)(C)C)cc2)nc(-c2ncccn2)nc1OCCO [BOSENTAN],< 25.3
16,CC[N+](C)(C)Cc1ccccc1Br [BRETYLIUM],> 1000
17,CN(Cc1cc(Br)cc(Br)c1N)C1CCCCC1 [BROMHEXINE],20.3
18,CCCCNc1cc(C(=O)O)cc(S(N)(=O)=O)c1Oc1ccccc1 [BUMETANIDE],526
19,CC(NC(C)(C)C)C(=O)c1cccc(Cl)c1 (stereo not drawn) [BUPROPION],> 1000
20,O=C1CC2(CCCC2)CC(=O)N1CCCCN1CCN(c2ncccn2)CC1 [BUSPIRONE],59.6
21,CS(=O)(=O)OCCCCOS(C)(=O)=O [BUSULFAN],> 1000
22,CCCCN(CCCC)CCCOC(=O)c1ccc(N)cc1 [BUTACAINE],488
23,CCCCOC(=O)c1ccc(N)cc1 [BUTAMBEN],181
